Data from the NIST ThermoML archive (doi:10.1007/s10765-008-0482-1).
Several values for one entry are separate records, joined by “and”; a condition that tells them apart may be missing. Identical values can stand only once. ± gives the expanded uncertainty stated by the source.

Experiment: xn = mol fraction of the nth substance listed
Conditions: Fluid (supercritical or subcritical phases), Parallel plate method

CC [ethane] + O=C=O
Conditions | thermal conductivity
296.64 K, Amount density=7450 mol/m3, x2 = 0.25 | 0.186 ± 0.004 W/m/K
296.65 K, Amount density=7450 mol/m3, x2 = 0.25 | 0.183 ± 0.0046 W/m/K
296.66 K, Amount density=6830 mol/m3, x2 = 0.25 | 0.138 ± 0.0071 W/m/K
296.69 K, Amount density=7450 mol/m3, x2 = 0.25 | 0.186 ± 0.007 W/m/K
296.7 K, Amount density=6870 mol/m3, x2 = 0.25 | 0.177 ± 0.0062 W/m/K and 0.188 ± 0.0066 W/m/K
296.7 K, Amount density=7450 mol/m3, x2 = 0.25 | 0.154 ± 0.0055 W/m/K
296.71 K, Amount density=6870 mol/m3, x2 = 0.25 | 0.214 ± 0.011 W/m/K
296.71 K, Amount density=7450 mol/m3, x2 = 0.25 | 0.175 ± 0.0048 W/m/K
296.72 K, Amount density=7450 mol/m3, x2 = 0.25 | 0.164 ± 0.0049 W/m/K and 0.166 ± 0.0049 W/m/K
296.73 K, Amount density=6870 mol/m3, x2 = 0.25 | 0.195 ± 0.0069 W/m/K
296.74 K, Amount density=6830 mol/m3, x2 = 0.25 | 0.199 ± 0.0086 W/m/K
296.74 K, Amount density=7450 mol/m3, x2 = 0.25 | 0.145 ± 0.006 W/m/K
296.75 K, Amount density=6870 mol/m3, x2 = 0.25 | 0.204 ± 0.0065 W/m/K
296.75 K, Amount density=7450 mol/m3, x2 = 0.25 | 0.157 ± 0.0052 W/m/K
296.76 K, Amount density=6870 mol/m3, x2 = 0.25 | 0.189 ± 0.0063 W/m/K
296.77 K, Amount density=6870 mol/m3, x2 = 0.25 | 0.195 ± 0.0096 W/m/K
296.79 K, Amount density=6830 mol/m3, x2 = 0.25 | 0.218 ± 0.0052 W/m/K
296.8 K, Amount density=6870 mol/m3, x2 = 0.25 | 0.168 ± 0.014 W/m/K
296.8 K, Amount density=8450 mol/m3, x2 = 0.25 | 0.0921 ± 0.0024 W/m/K
296.82 K, Amount density=6710 mol/m3, x2 = 0.26 | 0.118 ± 0.013 W/m/K
296.83 K, Amount density=6870 mol/m3, x2 = 0.25 | 0.157 ± 0.009 W/m/K
296.84 K, Amount density=6710 mol/m3, x2 = 0.26 | 0.111 ± 0.0037 W/m/K
296.84 K, Amount density=6830 mol/m3, x2 = 0.25 | 0.142 ± 0.012 W/m/K
296.85 K, Amount density=5680 mol/m3, x2 = 0.25 | 0.0729 ± 0.0021 W/m/K
296.86 K, Amount density=2940 mol/m3, x2 = 0.25 | 0.0306 ± 0.0015 W/m/K
296.87 K, Amount density=877 mol/m3, x2 = 0.26 | 0.0217 ± 0.0013 W/m/K
296.87 K, Amount density=6710 mol/m3, x2 = 0.26 | 0.11 ± 0.0037 W/m/K
296.88 K, Amount density=446 mol/m3, x2 = 0.25 | 0.021 ± 0.0013 W/m/K
296.88 K, Amount density=7450 mol/m3, x2 = 0.25 | 0.145 ± 0.0039 W/m/K
296.88 K, Amount density=7490 mol/m3, x2 = 0.25 | 0.139 ± 0.0033 W/m/K
297.16 K, Amount density=3090 mol/m3, x2 = 0.26 | 0.0313 ± 0.0015 W/m/K
297.44 K, Amount density=8450 mol/m3, x2 = 0.25 | 0.0821 ± 0.0022 W/m/K
297.46 K, Amount density=5680 mol/m3, x2 = 0.25 | 0.0677 ± 0.002 W/m/K
297.46 K, Amount density=6830 mol/m3, x2 = 0.25 | 0.11 ± 0.0027 W/m/K and 0.102 ± 0.0026 W/m/K
297.47 K, Amount density=2940 mol/m3, x2 = 0.25 | 0.0305 ± 0.0015 W/m/K
297.47 K, Amount density=6830 mol/m3, x2 = 0.25 | 0.102 ± 0.0026 W/m/K
297.48 K, Amount density=7490 mol/m3, x2 = 0.25 | 0.111 ± 0.0027 W/m/K
297.5 K, Amount density=10780 mol/m3, x2 = 0.25 | 0.0671 ± 0.002 W/m/K
297.52 K, Amount density=446 mol/m3, x2 = 0.25 | 0.021 ± 0.0013 W/m/K
298.49 K, Amount density=9120 mol/m3, x2 = 0.74 | 0.06 ± 0.0019 W/m/K
298.69 K, Amount density=6870 mol/m3, x2 = 0.25 | 0.169 ± 0.0035 W/m/K
298.95 K, Amount density=7450 mol/m3, x2 = 0.25 | 0.081 ± 0.003 W/m/K
298.99 K, Amount density=5680 mol/m3, x2 = 0.25 | 0.0623 ± 0.0019 W/m/K
298.99 K, Amount density=6830 mol/m3, x2 = 0.25 | 0.0779 ± 0.0068 W/m/K
298.99 K, Amount density=7490 mol/m3, x2 = 0.25 | 0.0811 ± 0.003 W/m/K
298.99 K, Amount density=10780 mol/m3, x2 = 0.25 | 0.0684 ± 0.002 W/m/K
299 K, Amount density=2940 mol/m3, x2 = 0.25 | 0.0305 ± 0.0015 W/m/K
299.01 K, Amount density=446 mol/m3, x2 = 0.25 | 0.0211 ± 0.0013 W/m/K
299.01 K, Amount density=6630 mol/m3, x2 = 0.74 | 0.0467 ± 0.0017 W/m/K
299.02 K, Amount density=446 mol/m3, x2 = 0.25 | 0.0212 ± 0.0013 W/m/K
301.91 K, Amount density=7730 mol/m3, x2 = 0.5 | 0.0493 ± 0.0017 W/m/K
301.93 K, Amount density=6710 mol/m3, x2 = 0.26 | 0.0624 ± 0.0019 W/m/K
301.95 K, Amount density=7530 mol/m3, x2 = 0.5 | 0.0505 ± 0.0018 W/m/K
301.96 K, Amount density=6960 mol/m3, x2 = 0.5 | 0.0531 ± 0.0018 W/m/K
301.98 K, Amount density=435 mol/m3, x2 = 0.5 | 0.0203 ± 0.0013 W/m/K
302 K, Amount density=6830 mol/m3, x2 = 0.25 | 0.0658 ± 0.002 W/m/K
302.01 K, Amount density=877 mol/m3, x2 = 0.26 | 0.0222 ± 0.0013 W/m/K
302.01 K, Amount density=2940 mol/m3, x2 = 0.5 | 0.0281 ± 0.0014 W/m/K
302.02 K, Amount density=446 mol/m3, x2 = 0.25 | 0.0214 ± 0.0013 W/m/K
302.02 K, Amount density=5680 mol/m3, x2 = 0.25 | 0.056 ± 0.0018 W/m/K
302.04 K, Amount density=2940 mol/m3, x2 = 0.25 | 0.0307 ± 0.0015 W/m/K
302.04 K, Amount density=6830 mol/m3, x2 = 0.25 | 0.0658 ± 0.002 W/m/K
302.05 K, Amount density=8450 mol/m3, x2 = 0.25 | 0.0676 ± 0.002 W/m/K
302.06 K, Amount density=7490 mol/m3, x2 = 0.25 | 0.0699 ± 0.002 W/m/K
302.11 K, Amount density=3090 mol/m3, x2 = 0.26 | 0.0311 ± 0.0015 W/m/K
302.25 K, Amount density=6630 mol/m3, x2 = 0.74 | 0.0436 ± 0.0017 W/m/K
302.43 K, Amount density=5650 mol/m3, x2 = 0.5 | 0.0436 ± 0.0017 W/m/K
307.99 K, Amount density=2940 mol/m3, x2 = 0.5 | 0.0279 ± 0.0014 W/m/K
308 K, Amount density=7730 mol/m3, x2 = 0.5 | 0.0462 ± 0.0017 W/m/K
308.01 K, Amount density=6830 mol/m3, x2 = 0.25 | 0.0567 ± 0.0019 W/m/K
308.02 K, Amount density=6960 mol/m3, x2 = 0.5 | 0.0468 ± 0.0017 W/m/K
308.02 K, Amount density=7490 mol/m3, x2 = 0.25 | 0.0614 ± 0.0019 W/m/K
308.03 K, Amount density=7530 mol/m3, x2 = 0.5 | 0.0469 ± 0.0017 W/m/K
308.06 K, Amount density=5650 mol/m3, x2 = 0.5 | 0.041 ± 0.0016 W/m/K
308.06 K, Amount density=7450 mol/m3, x2 = 0.25 | 0.0646 ± 0.002 W/m/K
308.06 K, Amount density=9120 mol/m3, x2 = 0.74 | 0.0485 ± 0.0017 W/m/K
308.07 K, Amount density=435 mol/m3, x2 = 0.5 | 0.0207 ± 0.0013 W/m/K
308.07 K, Amount density=446 mol/m3, x2 = 0.25 | 0.0219 ± 0.0013 W/m/K
308.09 K, Amount density=435 mol/m3, x2 = 0.5 | 0.0207 ± 0.0013 W/m/K
308.1 K, Amount density=877 mol/m3, x2 = 0.26 | 0.0228 ± 0.0013 W/m/K
308.12 K, Amount density=10780 mol/m3, x2 = 0.25 | 0.0659 ± 0.002 W/m/K
308.15 K, Amount density=2940 mol/m3, x2 = 0.25 | 0.031 ± 0.0015 W/m/K
308.16 K, Amount density=3090 mol/m3, x2 = 0.26 | 0.0314 ± 0.0015 W/m/K
308.18 K, Amount density=6630 mol/m3, x2 = 0.74 | 0.0413 ± 0.0016 W/m/K
308.18 K, Amount density=6710 mol/m3, x2 = 0.26 | 0.054 ± 0.0018 W/m/K
308.23 K, Amount density=8450 mol/m3, x2 = 0.25 | 0.0617 ± 0.0019 W/m/K
308.7 K, Amount density=5680 mol/m3, x2 = 0.25 | 0.0516 ± 0.0018 W/m/K
318.04 K, Amount density=9120 mol/m3, x2 = 0.74 | 0.0354 ± 0.0015 W/m/K
318.11 K, Amount density=435 mol/m3, x2 = 0.5 | 0.0218 ± 0.0013 W/m/K
318.11 K, Amount density=6630 mol/m3, x2 = 0.74 | 0.0382 ± 0.0016 W/m/K
318.12 K, Amount density=7530 mol/m3, x2 = 0.5 | 0.0445 ± 0.0017 W/m/K
318.13 K, Amount density=5650 mol/m3, x2 = 0.5 | 0.0411 ± 0.0016 W/m/K
318.13 K, Amount density=6960 mol/m3, x2 = 0.5 | 0.0425 ± 0.0016 W/m/K
318.13 K, Amount density=7490 mol/m3, x2 = 0.25 | 0.0559 ± 0.0018 W/m/K
318.13 K, Amount density=7730 mol/m3, x2 = 0.5 | 0.0403 ± 0.0016 W/m/K
318.14 K, Amount density=2940 mol/m3, x2 = 0.5 | 0.0293 ± 0.0014 W/m/K
318.14 K, Amount density=6830 mol/m3, x2 = 0.25 | 0.0532 ± 0.0018 W/m/K
318.14 K, Amount density=10780 mol/m3, x2 = 0.25 | 0.065 ± 0.002 W/m/K
318.15 K, Amount density=446 mol/m3, x2 = 0.25 | 0.0232 ± 0.0013 W/m/K
318.15 K, Amount density=5650 mol/m3, x2 = 0.5 | 0.0398 ± 0.0016 W/m/K
318.16 K, Amount density=2940 mol/m3, x2 = 0.25 | 0.0316 ± 0.0015 W/m/K
318.16 K, Amount density=8450 mol/m3, x2 = 0.25 | 0.049 ± 0.0017 W/m/K
318.17 K, Amount density=3090 mol/m3, x2 = 0.26 | 0.0318 ± 0.0015 W/m/K
318.19 K, Amount density=877 mol/m3, x2 = 0.26 | 0.0236 ± 0.0014 W/m/K
318.21 K, Amount density=6710 mol/m3, x2 = 0.26 | 0.0503 ± 0.0018 W/m/K
318.27 K, Amount density=5680 mol/m3, x2 = 0.25 | 0.0481 ± 0.0017 W/m/K
